For data set [1], the system named is K562 cells with dCas9-KRAB. Nature of the data set: Single-cell RNA-seq cell cycle analysis of thapsigargin-treated cells. The data set is classed as cell-based, human. The settings on record: thapsigargin treatment, UPR epistasis experiment. As for the experimental part:
(§1) For the perturb-seq epistasis experiment, seven three-guide vectors targeting every possible combination of ATF6, IRE1α, and PERK as well as two independent three-guide vectors with three negative control guide RNAs and different barcodes were individually packaged into lentiviruses. Freshly produced (i.e. not frozen) lentiviruses were spinfected into cBA007 cells (at 33° C. for 2 h at 1000×g) in media supplemented with 8 μg/mL polybrene. The virus was removed by centrifugation and cells were resuspended in fresh media. Three days after infection, transduction efficiencies of 5-10% were measured by flow cytometry. Cells were combined into a pool with equal numbers of transduced (BFP+) cells for each vector (resulting in 2-fold excess of negative control vectors) and the combined cells were then sorted on a BD 63 FACS Aria2 to near purity. […]
Single-cell analysis in FIG. 3 A population consisting of cells treated with 100 nM thapsigargin in each of our 8 genetic backgrounds was formed, along with DMSO-treated control cells. As outlined in the “Low cell count/inviable cell removal” section, cells with substantially lower than average UMI counts or that scored strongly for inviability markers from analysis were removed, as these groups partitioned away from the rest of the population in preliminary analyses. […]

For the next data set, the system named is K562 cells. In words: Viability of cells loaded onto the device after chemical treatment (epistasis experiment). It counts as cell-based, human. As for the experimental part:
as §1, with “purity. To limit heterogenous effects of cell microenvironments caused by cell settling, the sorted cells were grown with continuous agitation on an orbital shaker. Five days after infection, the pooled and sorted cells were split into three populations, which were treated as follows: 1) DMSO control treatment for 6 hr; 2) treatment with 4 μg/mL tunicamycin for 6 hr; and 3) treatment with 100 nM thapsigargin for 4 hr.” for “purity.”

In a further data set the test system is CHOP mRNA. Nature of the data set: RT-qPCR of CHOP mRNA in sgRNA-transduced cells +/- thapsigargin. It counts as cell-based, human. The settings on record: cells transduced with SEC61A1-, SEC61B-, or SEC61G-targeting sgRNAs; 0.5 μM Tg for 1.5 hours. As for the experimental part:
RT-qPCR and semi-quantitative PCR for XBP1 mRNA splicing Cells were harvested and total RNA was isolated using TRIzol® Reagent (ThermoFisher Scientific, 15596-018) and Phase Lock Gel tubes (VWR, 10052-170) or NucleoSpin® RNA (Macherey-Nagel, 67 740955.50) essentially according to manufacturers' instructions. RNA prepared by TRIzol® extraction was treated with TURBO™ DNase (ThermoFisher Scientific). RNA was converted to cDNA using SuperScript® II or SuperScript® III Reverse Transcriptase (ThermoFisher Scientific) under standard conditions with oligo(dT) primers or random hexamers with or without RNaseOUT™ Recombinant Ribonuclease Inhibitor (ThermoFisher Scientific). Quantitative PCR reactions were prepared with 1× master mix containing 1× Colorless GoTaq® Reaction Buffer (Promega, M792A), MgCl2 (0.7 mM), dNTPs (0.2 mM each), primers (0.75 μM each), and 1000× SYBR Green with GoTaq® DNA polymerase (Promega, M830B) in 22 μL reactions. Reactions were run on a LightCycler® 480 Instrument (Roche). Semi-quantitative XBP1-specific PCR reactions were prepared with 2 μL of cDNA diluted 1:10 using a master mix containing 0.9× Colorless GoTaq® Reaction Buffer (Promega, M792A), dNTPs (0.23 mM each), primers (0.45 μM each) with GoTaq® DNA polymerase (Promega, M830B) in 22.1 μL reactions. […]
Background: Quantitative PCR measures a nucleic acid by following its amplification.

For data set [2], the system named is mCherry reporter of IRE1α activation. Nature of the data set: UPRE mCherry / EF1α GFP reporter in K562 reporter cells (cBA011), flow cytometry. The data set is classed as cell-based, human. Conditions: K562 reporter cells (cBA011) treated with tunicamycin.
For a further data set, the system named is mRFP. In words: E. coli CRISPRi reporter strain, knockdown of mRFP by constant region variants. The settings on record: mRFP-targeting protospacer. The data set is classed as cell-based. The text has this:
Design and cloning of constant region variants for testing in E. coli. Constant region bases to mutate were identified by inspection of the crystal structure of Cas9 bound to guide RNA and target DNA (FIG. 9D, PDB ID codes 4OO8, 4UN3, 4ZT0 (Nishimasu et al. 2014, Anders et al. 2014, Jiang et al. 2015)). […] If applicable, sequence conservation patterns of the base in crRNAs/tracrRNAs of Streptococcus species and previous reports of constant regions carrying changes at the base (Briner et al. 2014, Dang et al. 2015) were used to determine the type of mutation. In this fashion, 15 constant region variants with mutations in different parts of the constant region were designed (FIG. 2D). The most diverse constant region variants cr2 and cr3 were designed by combining multiple individual mutations (FIG. 2D). To rapidly assess the activity of the variant constant regions, the variants were fused to a mRFP-targeting guide RNA (mRFP-NT1, sequence […] (SEQ ID NO: 36)) (Qi et al. 2013) and tested in an E. coli CRISPRi reporter strain for knockdown of mRFP (see below). To eliminate variability from copy number variation, guide RNAs were cloned into a plasmid for site-specific integration into the E. coli genome at attL and expressed from single copy from an IPTG-inducible PLlacO-1 promoter (Lutz, Bujard 1997). […]

Data set [3] concerns genomically integrated GFP. Nature of the data set: GFP knockdown by sgRNA expression vectors, flow cytometry. It counts as cell-based, human. Conditions: paired with EGFP-NT2 protospacer; cr2 from mU6, cr3 from hU6 promoter. In general terms: In flow cytometry, cells or beads pass a laser one at a time.

The results in this text go back to US20190300868A1, “COMPOSITIONS AND METHODS FOR CRISPR-BASED SCREENING” (The Regents of the University of California, priority 2016, published 2019).

Changes are numbered by the printed parent chain.

For `C/C=C(/C)C(=O)O[C@H]1C(C)=C2[C@H]([C@@H]1OC(=O)CCCCCCC)[C@@](C)(OC(C)=O)C[C@H](OC(=O)CCC)[C@@]1(O)[C@H]2OC(=O)[C@@]1(C)O` [thapsigargin], the cell cycle effect entry in data set [1] is recorded as “PERK-dependent cell cycle arrest in G1”. Also, the “viable cells loaded onto the device” value in the data set on K562 cells (human, 4 hr, 100 nM) was found to be 85.3%. Besides, the CHOP expression entry in the data set with CHOP mRNA is “CHOP upregulation”.

For the molecule tunicamycin, in the data set on K562 cells (4 μg/mL tunicamycin for 6 hr or 100 nM thapsigargin for 4 hr), the “viable cells loaded onto the device” value turned out to be 87.9%. Moreover, in data set [2], the “XBP1-dependent mCherry induction” value is on record as at most 16 fold and the “induction of GFP (EF1a promoter control reporter)” value was “no similar induction”.

B1: cr2: sgRNA constant region, combination of 3, 5, 9, 15, SEQ ID NO: 25 (nucleic acid)
chain: GTTTGAGAGCTAAGCAGAAAGCTGCATAGCAAGTTCAAATAAGGCTAGTCCGTACACAACTTGAAAAAGTGGCAGCCGAGTCGGCTGCTTTTTTT
modifications: expressed or natural sequence
Regarding B1, in the data set with mRFP, the “function of constant region in bacteria” value is on record as “functional in bacteria”. Further, in data set [3], the “GFP depletion in K562 cells” value is recorded as “indistinguishable from that of the Perturb-seq vector”.

B2: cr3: sgRNA constant region, combination of 2, 4, 10, 14, SEQ ID NO: 26 (nucleic acid)
chain: B1 chain with G5C, G17C, A20G, G21A, C22G, C36G, A54T, C55T, G75C, C85G
modifications: expressed or natural sequence
With B2, the “function of constant region in bacteria” value in the data set on mRFP is “functional in bacteria”. For the same molecule, the “GFP depletion in K562 cells” value in data set [3] is on record as “indistinguishable from that of the Perturb-seq vector”.
